Converted amounts (≈) assume the structure as drawn.
Key:
Cdr1p ATPase = experiment: Oligomycin sensitive ATPase/NTPase activity of AD1002 plasma membranes; format: biochemical, C. albicans; conditions: ratio of inhibitory concentrations Cdr1p/Pdr5p
Protocol: Membrane fractions were isolated from S. cerevisiae AD1002 (▪) or parental AD1-8u^− cells (●). ATPase assays were carried out at 30° C. for 30 min, as described in Materials and methods for Example 2. The oligomycin-sensitive activity was determined as the difference in ATPase activity in the presence and absence of 20 μM oligomycin. […] The results are the means (+/−SD) of four determinations carried out on two membrane preparations.
(B) Inhibition profile with KN20 on the oligomycin-sensitive Cdr1p ATPase activity of plasma membranes from AD1002 minus the oligomycin-sensitive ATPase activity of plasma membranes from the isogenic AD1-8u^− strain.
Yeast were grown in YEPD, pH 5.5 at 30° C. until they reached late-exponential phase of growth (OD600 nm=7), washed twice in ice-cold distilled water, and incubated on ice for 30 min to minimize glucose-stimulated Pma1p activity. Cells were resuspended in homogenising medium (50 mM Tris pH 7.5, 2 mM EDTA and 1 mM phenylmethylsulfonyl fluoride) and disrupted using a Braun Homogeniser. Cell debris and unbroken cells were removed by centrifuging at 2,000×g at 4° C. for 10 min. A crude membrane fraction was isolated from the cell-free supernatant by centrifuging at 30,000×g at 4° C. for 45 min. Plasma membranes were prepared by centrifugation of the supernatant obtained after selective precipitation of mitochondria at pH 5.2 as described previously (Goffeau, A. and Dufour, J. P., 1988). The plasma membranes were resuspended in 10 mM Tris pH 7.0, 0.5 mM EDTA and 20% [v/v] glycerol and stored at −80° C. Protein was determined using a micro-Bradford (Bio-Rad Laboratories, Hercules, Calif. [Bradford, M. M., 1976]) assay with gamma-globulin as standard. Nucleotide triphosphatase activity was measured by incubating the plasma membrane fractions (10 μg) at 30° C. in a final volume of 120 μl containing 6 mM NTP, 7 mM MgSO4 in 59 mM MES-Tris buffer pH 6.0-8.0. To eliminate possible contributions from nonspecific phosphatases, vacuolar, or mitochondrial ATPases, 0.2 mM ammonium molybdate, 50 mM KNO3 and 10 mM NaN3, respectively, were included in assays (Monk B C, et al, 1991). Other ATPase inhibitors (20 μM oligomycin, 20 μM aurovertin B or 100 μM vanadate were added to the reaction where indicated. After 30 min the reaction was stopped by adding 130 μl of a solution containing 1% (w/v) SDS, 0.6 M H2SO4, 1.2% (w/v) ammonium molybdate and 1.6% (w/v) ascorbic acid. Inorganic phosphate released from NTPs was measured at 750 nm after 10 min incubation at room temperature.

AD1002 cells = experiment: Glucose-dependent rhodamine 6G efflux; format: cell-based, S. cerevisiae; conditions: fluconazole 10 μM in preincubation and all later steps; 10 min after glucose
Protocol: The efflux of rhodamine 6G at 30° C. was followed by direct measurement of fluorescence in cell supernatants following glucose (2 mM) addition to cell suspensions. […] The indicated concentrations of KN20 were added to AD124567 cells preloaded with rhodamine 6G, the cells were preincubated for 5 minutes at 30° C. and glucose added to commence rhodamine efflux.
A previously described method (Kolaczkowski, M et al. 1996) was adapted to measure rhodamine 6G (Sigma) efflux from whole cells. Yeast cells from exponentially growing cultures in YEPD (OD600 nm=0.5) were collected by centrifugation (3,000×g, 5 min, 20° C.) and washed three times with water. The washed cells were resuspended at a concentration of 0.5×10^6 to 1.0×10^7 cells per ml in HEPES-NaOH (50 mM, pH 7.0) containing 5 mM 2-deoxyglucose and 10 μM rhodamine 6G. In some experiments fluconazole (10 μM) was also added. Cell suspensions were incubated at 30° C. with shaking for 90 min to allow rhodamine accumulation under glucose starvation conditions. The starved cells were washed twice in 50 mM HEPES-NaOH pH 7.0, and portions (400 μl) incubated at 30° C. for 5 min before addition of glucose (final concentration 2 mM) to initiate rhodamine efflux. […] The rhodamine 6G fluorescence of samples was measured using a Cary Eclipse spectrofluorimeter (Varian Inc, Victora Australia). […]

[1] = system: S. cerevisiae AD1002 expressing C. albicans Cdr1p; experiment: MIC microdilution test, strain expressing Cdr1p; format: cell-based
Protocol: (§1) The MICs of antifungal agents for S. cerevisiae cells were determined by a microdilution test based on the macrodilution reference method of the National Committee for Clinical Laboratory Standards. Cells (10 μl cell suspension, 2×10^5 cells/ml) were inoculated into 90 μl CSM-URA, buffered with 10 mM 2-(N-morpholino)ethanesulfonic acid (MES) and 18 mM N-2-hydroxyethylpiperazine-N′-2-ethanesulfonic acid (HEPES), pH 7.0 and containing 0.67% (w/v) yeast nitrogen base (YNB) in microtitre plate wells. For the uracil-requiring strain AD1-8u^− the medium was supplemented with 0.02% (w/v) uridine. The wells contained, in […], doubling dilutions of antifungal agents (final concentrations: fluconazole, 40-0.078 μg/ml; itraconazole and ketoconazole, 8-0.016 μg/ml). The microtitre plates were incubated at 30° C. for 48 h with shaking and then the growth of cells in individual wells (OD590) was measured with a microplate reader (EL 340, Bio-Tek, Winooski, Vt.). The MIC80 was the lowest concentration of drug that inhibited growth yield by at least 80% compared to a no-drug control.

[2] = system: initial construct in AD1-8u^− with barely detectable Cdr1p; experiment: MIC, initial defective Cdr1p construct; format: cell-based, S. cerevisiae; conditions: Saccharomyces cerevisiae
Protocol: as §1

AD-CDR1 (Cdr1p) = experiment: Disk diffusion assay, AD-CDR1; format: cell-based, S. cerevisiae; conditions: AD-pABC as negative control, 30° C., 48 h
Protocol: (§2) The cells were spread on CSM-agar plates and exposed to the drugs or chemicals applied to filter disks and incubated at 30° C. for 48 h. The amounts of individual drugs are given in the Materials and Methods section of Example 3. Rhodamine 6G and rhodamine 123 were dissolved in ethanol and the other antifungals were dissolved in DMSO.
(§3) Drug susceptibility was measured using disk assays on CSM-URA plates (containing 1.5% w/v agar). Yeast cells (200 μl ml of 5×10^6 cells/ml) were spread on the plates. 10 μl of drug solution or solvent control were spotted onto sterile Whatman paper disks on the pre-spread plates. The following amounts (nmoles) of drugs were applied to individual disks: fluconazole, 633 (Pfizer Ltd., Sandwich, Kent, United Kingdom); itraconazole, 0.23 (Janssen); miconazole, 0.42 (Janssen); cycloheximide, 0.71 (Sigma); rhodamine 6G, 100 (Sigma, Penrose, Auckland, N. Z.); rhodamine 123, 125 (Sigma); cerulenin 4.5 (Sigma); 5-flucytosine 100 (Sigma); amphotericin B, 97 (E. R. Squibb & Sons, Princeton, N.J.); nystatin 65 (Sigma). Agar plates were incubated at 30° C. for 48 h or until clear growth inhibition zones were visible.

AD-ERG11 (Erg11p) [3] = experiment: Disk diffusion assay, AD-ERG11; format: cell-based, S. cerevisiae; conditions: AD-pABC as negative control, 30° C., 48 h
Protocol: as §2, §3

S. cerevisiae AD1-8/CDR2 = experiment: MIC microdilution test, strain expressing Cdr2p; format: cell-based; conditions: Saccharomyces cerevisiae, AD18/CDR2, 30° C.
Protocol: as §1

AD-ERG11 (Erg11p) [4] = experiment: MIC in liquid microdilution assay, AD-ERG11; format: cell-based, S. cerevisiae; conditions: Saccharomyces cerevisiae
Protocol: as §1

AD-BEN^R (Ben^Rp) = experiment: Disk diffusion assay, AD-BEN^R; format: cell-based, S. cerevisiae; conditions: AD-pABC as negative control, 30° C., 48 h
Protocol: as §2, §3

[5] = system: S. cerevisiae AD1-8 sec6-4/CDR1; experiment: MIC microdilution test, sec6-4 host with CDR1; format: cell-based; conditions: Saccharomyces cerevisiae, 30° C.
Protocol: as §1

Row | Compound | Cdr1p ATPase inhibition concentration relative to Pdr5p ATPase (Cdr1p ATPase) | reduction in the concentration of released rhodamine 6G (AD1002 cells) | MIC80 ([1]; AD1002 expressing Cdr1p, 30° C., 48 h, pH 7.0) | fold increase in MIC ([1]; AD1002 relative to parental AD1-8u^−) | MIC [2] | resistance/sensitivity in disk diffusion assay (AD-CDR1 (Cdr1p)) | resistance/sensitivity in disk diffusion assay (AD-ERG11 (Erg11p) [3]) | MIC80 (S. cerevisiae AD1-8/CDR2) | MIC (AD-ERG11 (Erg11p) [4]) | resistance/sensitivity in disk diffusion assay (AD-BEN^R (Ben^Rp)) | MIC80 [5]
1 | D-octapeptide NH2-Asn-Trp-Trp-Lys-Val-Arg-Arg-Arg-CONH2 with a single 4-methoxy-2,3,6-trimethylbenzenesulphonyl (Mtr) substituent on one tryptophan sidechain; Pdr5p inhibitor [KN20] | 2.7 fold | – | – | – | – | – | – | – | – | – | –
2 | OC(Cn1cncn1)(Cn1cncn1)c1ccc(F)cc1F [fluconazole] | – | 32% | 30 µg/mL (≈ 98 µM) | > 45 fold | 20 µg/mL (≈ 65.3 µM) | resistances | modest resistance | 64 µg/mL (≈ 209 µM) | 2 µg/mL (≈ 6.53 µM) | resistant | 80 µg/mL (≈ 261 µM)

From patent US8728797B2, “Yeast membrane protein expression system and its application in drug screening” (priority 2001, dated 2014)
